Patent US8410302B2, “Methoxyimino compounds and fungicide composition comprising same” (Kyung Nong Corporation, priority 2007, dated 2013)
Read-outs that look alike come from different tables or passages of the source.

Experiments:
Phytophthora infestans = experiment: whole plant or invertebrate; type: in vivo; settings: for pest or weed control at 2 ppm / pest or weed control at 10 ppm / pest or weed control at 50 ppm / pest or weed control at 100 ppm: Phytophthora infestans, in Solanum lycopersicum, read-out: TLB control value (C.V.); for TLB control value (C.V.): tomato late blight
Botrytis cinerae = experiment: Fungicidal activity against cucumber gray mold rot (CGM) disease, control value; type: in vivo; settings: for pest or weed control at 50 ppm / pest or weed control at 100 ppm: Botrytis, read-out: CGM control value (C.V.)
Rhizoctonia solani AG-1 = experiment: Fungicidal activity against rice sheath blight (RSB) disease, control value; settings: for pest or weed control at 2 ppm / pest or weed control at 10 ppm / pest or weed control at 50 ppm / pest or weed control at 100 ppm: Rhizoctonia solani, AG1, in Oryza sativa, read-out: RSB control value (C.V.)
[1] = test system: Pyricularia oryzae Carvara KA301; experiment: whole plant or invertebrate; type: in vivo; settings: for pest or weed control at 2 ppm / pest or weed control at 10 ppm / pest or weed control at 50 ppm / pest or weed control at 100 ppm: Pyricularia oryzae, read-out: RCB control value (C.V.); for RCB control value (C.V.): rice blast
Puccinia recondita = experiment: Fungicidal activity against wheat leaf rust (WLR) disease, control value; type: in vivo; settings: for pest or weed control at 2 ppm / pest or weed control at 10 ppm / pest or weed control at 50 ppm / pest or weed control at 100 ppm: read-out: WLR control value (C.V.)
Erysiphae graminis = experiment: Fungicidal activity against barley powdery mildew (BPM) disease, control value; type: in vivo; settings: for pest or weed control at 2 ppm / pest or weed control at 10 ppm / pest or weed control at 50 ppm / pest or weed control at 100 ppm: 168 h, read-out: BPM control value (C.V.)
[2] = 100 ppm, cucumber gray mold rot
[3] = Hordeum vulgare, 2 ppm, barley powdery mildew
[4] = Hordeum vulgare, 10 ppm, barley powdery mildew
[5] = Hordeum vulgare, 50 ppm, barley powdery mildew
[6] = Hordeum vulgare, 100 ppm, barley powdery mildew

Structure (SMILES)	pest or weed control at 2 ppm (Phytophthora infestans)	pest or weed control at 10 ppm (Phytophthora infestans)	pest or weed control at 50 ppm (Phytophthora infestans)	pest or weed control at 100 ppm (Phytophthora infestans)	pest or weed control at 100 ppm (Botrytis cinerae; [2])	pest or weed control at 2 ppm (Rhizoctonia solani AG-1)	pest or weed control at 10 ppm (Rhizoctonia solani AG-1)	pest or weed control at 50 ppm (Rhizoctonia solani AG-1)	pest or weed control at 100 ppm (Rhizoctonia solani AG-1)	pest or weed control at 2 ppm [1]	pest or weed control at 10 ppm [1]	pest or weed control at 50 ppm [1]	pest or weed control at 100 ppm [1]	pest or weed control at 2 ppm (Puccinia recondita; 2 ppm, wheat leaf rust)	pest or weed control at 10 ppm (Puccinia recondita; 10 ppm, wheat leaf rust)	pest or weed control at 50 ppm (Puccinia recondita; 50 ppm, wheat leaf rust)	pest or weed control at 100 ppm (Puccinia recondita; 100 ppm, wheat leaf rust)	pest or weed control at 2 ppm (Erysiphae graminis; [3])	pest or weed control at 10 ppm (Erysiphae graminis; [4])	pest or weed control at 50 ppm (Erysiphae graminis; [5])	also measured
CO/N=C(/C(=O)OC)c1ccccc1COc1ccc(C=C(Cl)Cl)cc1C [Example 41, methyl-(E)-2-(2-((4-(2,2-dichlorovinyl)-2-methylphenoxy)methyl)phenyl)-2-methoxyiminoacetate]	100%	100%	100%	100%	90%	100%	100%	100%	100%	100%	100%	100%	100%	100%	100%	100%	100%	100%	100%	100%	pest or weed control at 50 ppm (Botrytis cinerae; cucumber gray mold rot): 75%; pest or weed control at 100 ppm (Erysiphae graminis; [6]): 100%
CNC(=O)/C(=N/OC)c1ccccc1CON=C(C)c1cccc(C=C(Cl)Cl)c1 [Example 20, (E)-2-[[[[[2-[3-(2,2-dichlorovinyl)phenyl](1-methyl)methylidene]amino]oxy]methyl]phenyl]-2-methoxyimino-N-methylacetamide]																					TLB control value (C.V.) (Phytophthora infestans; 2 ppm): 98%; TLB control value (C.V.) (Phytophthora infestans; 10 ppm): 100%; TLB control value (C.V.) (Phytophthora infestans; 50 ppm): 100%; TLB control value (C.V.) (Phytophthora infestans; 100 ppm): 100%; CGM control value (C.V.) (Botrytis cinerae; [2]): 74%; RSB control value (C.V.) (Rhizoctonia solani AG-1; 100 ppm, rice sheath blight): 75%; RCB control value (C.V.) ([1]; 2 ppm): 90%; RCB control value (C.V.) ([1]; 10 ppm): 97%; RCB control value (C.V.) ([1]; 50 ppm): 100%; RCB control value (C.V.) ([1]; 100 ppm): 100%; WLR control value (C.V.) (Puccinia recondita; 2 ppm, wheat leaf rust): 30%; WLR control value (C.V.) (Puccinia recondita; 10 ppm, wheat leaf rust): 90%; WLR control value (C.V.) (Puccinia recondita; 50 ppm, wheat leaf rust): 98%; WLR control value (C.V.) (Puccinia recondita; 100 ppm, wheat leaf rust): 100%; BPM control value (C.V.) (Erysiphae graminis; 2 ppm, barley powdery mildew): 100%; BPM control value (C.V.) (Erysiphae graminis; 10 ppm, barley powdery mildew): 100%; BPM control value (C.V.) (Erysiphae graminis; 50 ppm, barley powdery mildew): 100%; BPM control value (C.V.) (Erysiphae graminis; 100 ppm, barley powdery mildew): 100%
CNC(=O)/C(=N/OC)c1ccccc1COc1cc(C=C(Cl)Cl)ccc1OC [Example 48, (E)-2-(2-((5-(2,2-dichlorovinyl)-2-methoxyphenoxy)methyl)phenyl)-2-methoxyimino-N-methylacetamide]	70%	99%	100%	100%	50%	95%	98%	100%	100%	90%	100%	100%	100%	100%	100%	100%	100%	99%	100%	100%	pest or weed control at 100 ppm (Erysiphae graminis; [6]): 100%
CNC(=O)/C(=N/OC)c1ccccc1COc1ccc(C)cc1C=C(Cl)Cl [Example 46, (E)-2-(2-((2-(2,2-dichlorovinyl)-4-methylphenoxy)methyl)phenyl)-2-methoxyimino-N-methylacetamide]	96%	100%	100%	100%	30%	98%	100%	100%	100%	95%	100%	100%	100%	100%	100%	100%	100%	100%	100%	100%	pest or weed control at 100 ppm (Erysiphae graminis; [6]): 100%
CNC(=O)/C(=N/OC)c1ccccc1COc1cccc(C=C(Br)Br)c1Cl [Example 68, (E)-2-(2-((3-(2,2-dibromovinyl)-2-chlorophenoxy)methyl)phenyl)-2-methoxyimino-N-methylacetamide]	100%	100%	100%	100%		100%	100%	100%	100%	100%	100%	100%	100%								pest or weed control at 50 ppm (Botrytis cinerae): 20%; pest or weed control at 100 ppm (Botrytis cinerae; 100 ppm): 70%; pest or weed control at 2 ppm (Puccinia recondita; Puccinia recondita, 2 ppm): 100%; pest or weed control at 10 ppm (Puccinia recondita; Puccinia recondita, 10 ppm): 100%; pest or weed control at 50 ppm (Puccinia recondita; Puccinia recondita, 50 ppm): 100%; pest or weed control at 100 ppm (Puccinia recondita; Puccinia recondita, 100 ppm): 100%; pest or weed control at 2 ppm (Erysiphae graminis; 2 ppm): 100%; pest or weed control at 10 ppm (Erysiphae graminis; 10 ppm): 100%; pest or weed control at 50 ppm (Erysiphae graminis; 50 ppm): 100%; pest or weed control at 100 ppm (Erysiphae graminis; 100 ppm): 100%
